Measured values as given in EP2505659A1, “Methods for the identification of dioxygenase interacting molecules and for the purification of dioxygenase proteins” (CELLZOME AG, priority 2011, dated 2012).
Where a name gives a salt, the structure may show the parent alone. Read-outs that look alike come from different tables or passages of the source.

Experiments:
C17ORF101 = target: T1, C17ORF101 (Homo sapiens, UniProt Q6PK18); test: Bead competition binding assay, immobilized compound A, K-562, HL-60 and Jurkat nuclear lysates; conditions: read-out: Fold change versus DMSO control, C17ORF101; 100 µM free compound A; HL-60 nuclear lysate
T1 construct: capturing and identification of dioxygenases from nuclear protein extracts; endogenous in cells
T1 sequence (Q6PK18 1-331 isoform Q6PK18-2): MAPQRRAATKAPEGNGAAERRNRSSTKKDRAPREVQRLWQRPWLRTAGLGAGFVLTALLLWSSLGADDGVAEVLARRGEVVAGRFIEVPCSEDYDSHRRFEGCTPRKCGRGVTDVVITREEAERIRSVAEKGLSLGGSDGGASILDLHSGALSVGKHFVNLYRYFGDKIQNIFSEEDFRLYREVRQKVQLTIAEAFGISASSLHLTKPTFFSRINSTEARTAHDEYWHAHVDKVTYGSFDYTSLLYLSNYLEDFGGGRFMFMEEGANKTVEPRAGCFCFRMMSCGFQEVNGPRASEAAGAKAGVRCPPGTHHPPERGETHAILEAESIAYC
Text: (§1) The proteins bound to the immobilized compound were eluted with detergent-containing buffer and separated on a SDS-polyacryamide gel. […] Table 4: Compound treatment and TMT-labeling of cell samples
(§2) Jurkat cells (ATCC number TIB-152) were either obtained from an external supplier (CIL SA, Mons, Belgium) or grown in one litre Spinner flasks (Integra Biosciences, #182101) in suspension in RPMI 1640 medium (Invitrogen, #21875-034) supplemented with 10% Fetal Bovine Serum (Invitrogen, #10270-106) at a density between 0.2 x 10^6 and 1.0 x 10^6 cells/ml. Cells were harvested by centrifugation, washed once with 1 x PBS buffer (Invitrogen, #14190-094) and cell pellets were frozen in liquid nitrogen and subsequently stored at -80°C.
(§3) Source of HL-60 cells: HL-60 cell line (DSMZ, Braunschweig, Germany; DSMZ number ACC3). K562 cells were also purchased from DSMZ (Braunschweig, Germany).
(§4) Extracts of nuclei were prepared according to the Dignam protocol (Dignam et al., 1983. Nucleic Acids Res. 11 (5):1475-89).
(§5) The TMT reagents are a set of multiplexed, amine-specific, stable isotope reagents that can label peptides on amino groups in up to six different biological samples enabling simultaneous identification and quantitation of peptides. The TMT reagents were used according to instructions provided by the manufacturer. The samples were resuspended in 10 µl 50 mM TEAB solution, pH 8.5 and 10 µl acetonitril were added. The TMT reagent was dissolved in acetonitrile to a final concentration of 24 mM and 10 µl of reagent solution were added to the sample. The labeling reaction was performed at room temperature for one hour on a horizontal shaker and stopped by adding 5 µl of 100 mM TEAB and 100 mM glycine in water. The labeled samples were then combined, dried in a vacuum centrifuge and resuspended in 60% 200mM TEAB / 40% acetonitril.
(§6) Table 5: Peptide elution off the LC system
(§7) Search criteria varied depending on which mass spectrometer was used for the analysis.

P4HA1 = target: T2, P4HA1 (Homo sapiens, UniProt P13674); test: as above; conditions: read-out: Fold change versus DMSO control, P4HA1, 100 µM free compound A
T2 construct: endogenous in cells
T2 sequence (P13674 18-534): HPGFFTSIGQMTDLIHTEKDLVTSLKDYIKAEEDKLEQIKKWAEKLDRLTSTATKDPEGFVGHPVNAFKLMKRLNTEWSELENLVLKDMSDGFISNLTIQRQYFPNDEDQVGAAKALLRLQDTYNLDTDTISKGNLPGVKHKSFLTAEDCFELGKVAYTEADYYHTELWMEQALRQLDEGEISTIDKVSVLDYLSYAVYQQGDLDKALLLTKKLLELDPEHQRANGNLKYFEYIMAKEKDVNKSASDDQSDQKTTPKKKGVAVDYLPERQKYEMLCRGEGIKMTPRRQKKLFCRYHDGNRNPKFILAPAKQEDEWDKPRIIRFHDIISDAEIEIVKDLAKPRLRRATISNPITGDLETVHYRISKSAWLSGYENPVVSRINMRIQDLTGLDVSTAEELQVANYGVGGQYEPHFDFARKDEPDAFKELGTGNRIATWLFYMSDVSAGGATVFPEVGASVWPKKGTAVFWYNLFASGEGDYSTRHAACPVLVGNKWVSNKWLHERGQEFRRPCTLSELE
T2 sequence (P07237 18-508 partner): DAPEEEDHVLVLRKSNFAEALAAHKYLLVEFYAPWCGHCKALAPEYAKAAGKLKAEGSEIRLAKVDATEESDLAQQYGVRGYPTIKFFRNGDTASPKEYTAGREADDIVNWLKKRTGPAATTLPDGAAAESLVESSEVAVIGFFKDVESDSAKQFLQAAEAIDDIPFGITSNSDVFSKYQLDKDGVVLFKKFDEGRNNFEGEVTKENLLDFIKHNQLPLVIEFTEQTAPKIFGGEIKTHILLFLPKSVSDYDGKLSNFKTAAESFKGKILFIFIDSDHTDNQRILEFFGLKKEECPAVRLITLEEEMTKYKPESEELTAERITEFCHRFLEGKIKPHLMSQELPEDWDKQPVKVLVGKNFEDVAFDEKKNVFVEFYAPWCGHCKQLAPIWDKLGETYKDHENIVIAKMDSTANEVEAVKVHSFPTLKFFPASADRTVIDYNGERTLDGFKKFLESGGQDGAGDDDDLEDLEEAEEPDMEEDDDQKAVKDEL
Text: as §1, §2, §3, §4, §5, §6, §7

`O=C(O)CNC(=O)C1C(=O)OC2(CCNCC2)OC1=O` [compound A, 2-(2,4-dioxo-1,5-dioxa-9-azaspiro[5.5]undecane-3-carboxamido)acetic acid hydrochloride] showed a remaining binding at 100 µM (C17ORF101) of 67%, a remaining binding at 100 µM (P4HA1; HL-60 nuclear lysate) of 25% and a remaining binding at 100 µM (P4HA1; K-562 nuclear lysate) of 31%.
